Columns and labels:
[1] = system: HTLV-I-infected T-lymph cell lines (MT-2, MT-4, HUT-102, ED-40515 (−)); test: Measurement of proliferation potency of HTLV-I-infected T-lymph cell lines (WST-8 cell survival rate); type: cell-based; settings: for effect on the growth of HTLV-I-infected T-lymph cell lines: 10, 5, 2.5 μM, FIG. 3; for effect on the growth of HTLV-I-infected T-lymph cell lines / growth of HTLV-I-infected T-lymph cell lines (cell survival rate): WST-8; for growth of HTLV-I-infected T-lymph cell lines (cell survival rate): 10, 5, 2.5, 1.25, 0.625 μM, FIG. 1
Experimental: (§1) After adding “WST-8” (manufactured by Wako Pure Chemical Industries, Ltd.) in an amount of 5 μL/well as a coloring substrate, cells were cultured for four hours at 37° C.
(§2) Cell survival rate (%)=[1−(A−B)/A]×100 [Formula 1]
(§3) A: Absorbance without agent treatment
(§4) A: Absorbance with agent treatment

[2] = system: EBV-infected B cell lines (Raji, Daudi, B95-8/BJAB, B95-8/Ramos, LCL-Ka, LCL-Ku); test: Measurement of proliferation potency of EBV-infected B cell lines (WST-8 cell survival rate); type: cell-based; settings: 24 hours; for growth of EBV-infected BL cell lines (cell survival rate): 10, 5, 2.5, 1.25, 0.625 μM, WST-8, FIG. 2
Experimental: as §1, §2, §3, §4

PBMC of a healthy person = test: Measurement of proliferation potency of peripheral blood mononuclear cells of a healthy person (WST-8); settings: for action on normal cells: normal cells versus HTLV-1-infected cells and ATL cells
Experimental: First, the peripheral blood mononuclear cells (PBMC) were separated by the Ficoll centrifugal specific gravity method. The cells were diluted with an RPMI 1640 culture medium containing 10% fetal bovine serum to 2×10^6 cells/mL and spread over a 96-well plate in an amount of 1×10^5 cells/well.
Next, 50 μL/well of fucoxanthin and fucoxanthinol were added to make final concentrations of 10, 5, 2.5, 1.25, and 0.625 μM (fucoxanthin) or 2.5, 1.25 and 0.625 μM (fucoxanthinol), followed by incubation at 37° C. for 24 hours. After adding WST-8 in an amount of 5 μL/well, the cells were cultured for four hours at 37° C. After culturing, absorbance at a wavelength of 450 nm was measured by a microplate reader to determine the survival rate of the cells using the above formula.

[3] = system: HTLV-I-infected cell lines (MT-2, MT-4, HUT-102, ED-40515 (−)); test: Measurement of cell-cycle of HTLV-I-infected cell lines (propidium iodide, flow cytometry); type: cell-based; settings: 5 μM, 24 hours; FIG. 5
Experimental: 1×10^6 cells of HTLV-I-infected cell lines (MT-2, MT-4, HUT-102, ED-40515 (−)) were scattered over a cell culture plate, and 5 μM of fucoxanthin was added, followed by incubation at 37° C. for 24 hours. After 24 hours, the cells were collected and dyed with propidium iodide to measure the DNA content using a flow sight meter. The cell cycle of each cell was judged by calculating the distribution of the cell group of each cell cycle from the result of the DNA content.

[4] = system: PBMC (leukemia cells) of adult T-cell-leukemia (ATL) patients; test: Measurement of proliferation potency of peripheral blood mononuclear cells of ATL patients (WST-8); type: cell-based, human; settings: 24 hours; for growth of leukemia cells in ATL patients (PBMC survival rate): five ATL patients, fucoxanthin 0.625-10 μM, fucoxanthinol 0.625-2.5 μM, FIG. 4
[5] = system: HTLV-I-infected cell lines (MT-2, MT-4, HUT-102, ED-40515 (−)); test: Measurement of apoptosis of HTLV-I-infected cell lines (annexin V, flow cytometry); type: cell-based
Experimental: After 24 hours, the cells were collected and dyed with annexin V to measure the rate (%) of apoptosis-positive cells using a flow sight meter.

[6] = HTLV-1-infected cells and ATL cells

SMILES	effect on the growth of HTLV-I-infected T-lymph cell lines ([1]; 24 hours)	growth of EBV-infected BL cell lines (cell survival rate) [2]	action on normal cells (PBMC of a healthy person)	growth of leukemia cells in ATL patients (PBMC survival rate) [4]	growth of HTLV-I-infected T-lymph cell lines (cell survival rate) ([1]; 24 hours)	concentration causing apoptosis compared with β-carotene or astaxanthin [5, 6]	further results
CC1=C(/C=C/C(C)=C/C=C/C(C)=C/C=C/C=C(C)/C=C/C=C(C)/C=C/C2=C(C)C(=O)[C@@H](O)CC2(C)C)C(C)(C)C[C@H](O)C1=O [astaxanthin, reference compound]	only a slight effect						
CC(=O)O[C@H]1CC(C)(C)C(=C=C/C(C)=C/C=C/C(C)=C/C=C/C=C(C)/C=C/C=C(\C)C(=O)C[C@@]23O[C@]2(C)C[C@@H](O)CC3(C)C)[C@](C)(O)C1 [fucoxanthin]		concentration-dependently suppressed the growth	substantially do not act on normal cells	concentration-dependently suppressed the growth	concentration-dependently suppressed the growth	significantly lower than the corresponding concentration of β-carotene or astaxanthin	effect on the cell cycle of HTLV-I-infected cell lines [3]: suspends the cell cycle of all HTLV-I-infected cell lines at the G1 phase; apoptosis of HTLV-I-infected cell lines (annexin V positive cells) ([5]; MT-2, MT-4, HUT-102, ED-40515 (−), 24 hours, FIG. 6): induces apoptosis in all HTLV-I infected cell lines; concentration dependence of apoptosis of MT-2 ([5]; MT-2, 10, 5, 2.5 μM, 24 hours, FIG. 7): concentration dependent
C\C(C=C=C1C(C)(C)C[C@H](O)C[C@@]1(C)O)=C/C=C/C(C)=C/C=C/C=C(C)/C=C/C=C(\C)C(=O)C[C@@]12O[C@]1(C)C[C@@H](O)CC2(C)C [fucoxanthinol]		concentration-dependently suppressed the growth	substantially do not act on normal cells	concentration-dependently suppressed the growth	concentration-dependently suppressed the growth	significantly lower than the corresponding concentration of β-carotene or astaxanthin	capability to inhibit growth compared with fucoxanthin ([2]; EBV-infected BL cell lines): significantly higher than that of fucoxanthin; toxicity against the PBMC of the healthy person (PBMC of a healthy person; fucoxanthin 0.625-10 μM, fucoxanthinol 0.625-2.5 μM, 24 hours, FIG. 4): no toxicity; effect on growth potency compared with fucoxanthin ([4]; PBMC of ATL patients): higher than that of fucoxanthin; survival rate of the cells ([1]; HTLV-1-infected cells and ATL cells, at a concentration of one micromole or less): almost zero; capability to inhibit growth compared with fucoxanthin ([1]; HTLV-I-infected T-lymph cell lines, 24 hours): significantly higher than that of fucoxanthin; concentration causing apoptosis [5, 6]: one micromole or less; apoptosis-inducing effect compared with fucoxanthin ([5]; MT-2, 24 hours): stronger than that of fucoxanthin; apoptosis of MT-2 (annexin V positive cells) ([5]; MT-2, 10, 5, 2.5, 1.25, 0.625 μM, 24 hours, FIG. 8): induces apoptosis in MT-2
CC1=C(/C=C/C(C)=C/C=C/C(C)=C/C=C/C=C(C)/C=C/C=C(C)/C=C/C2=C(C)CCCC2(C)C)C(C)(C)CCC1 [β-carotene, reference compound]	only a slight effect						

Reference: patent US20100197782A1, “THERAPEUTIC AGENT FOR VIRUS-ASSOCIATED MALIGNANCY” (priority 2006, published 2010)
